Earlier results in patent US9730899B2, “Controlled release pharmaceutical composition with resistance against the influence of ethanol employing a coating comprising neutral vinyl polymers and excipients” (Evonik Roehm GmbH, priority 2009, dated 2017).
Counter-ions that a name gives are not always drawn. Like-named read-outs stand apart in the source and are kept apart here.

Details: USP classification, between 15° C. and 25° C.

Solubility in water | Solubility in ethanol (listed as metoprolol) | Solubility in ethanol (HCl) | Solubility in ethanol (listed as diltiazem, HCl) | SMILES | Solubility in ethanol | Solubility in ethanol (listed as theophyllin) | Solubility in ethanol (listed as naloxone)
Freely soluble (from 1 to 10) | sparingly soluble |  |  | COCCc1ccc(OCC(O)CNC(C)C)cc1 (centres unmarked) [Metoprolol succinate] | Sparingly soluble (more than 30 to 100) |  | 
Practically insoluble (more than 10.000) |  |  |  | NC(=O)N1c2ccccc2C=Cc2ccccc21 [Carbamazepine] | Soluble (more than 10 to 30) |  | 
Freely soluble (from 1 to 10) |  | Sparingly soluble (more than 30 to 100) | sparingly soluble | COc1ccc([C@@H]2Sc3ccccc3N(CCN(C)C)C(=O)[C@@H]2OC(C)=O)cc1 [Diltiazem HCl] |  |  | 

SMILES | Solubility in water | Solubility in ethanol (listed as metoprolol) | Solubility in ethanol (HCl) | Solubility in ethanol (listed as diltiazem, HCl) | Solubility in ethanol | Solubility in ethanol (listed as theophyllin) | Solubility in ethanol (listed as naloxone)
Cn1c(=O)c2[nH]cnc2n(C)c1=O [Theophylline] | Slightly soluble (more than 100 to 1000) |  |  |  | Sparingly soluble (more than 30 to 100) | sparingly soluble | 
C=CCN1CC[C@]23c4c5ccc(O)c4O[C@H]2C(=O)CC[C@@]3(O)[C@H]1C5 [Naloxone] | Soluble (more than 10 to 30) |  |  |  | Slightly soluble (more than 100 to 1000) |  | slightly soluble
